From PubChem BioAssay AID493102 (Broad Institute, 2011)

Test system: SK-MEL-5 TRPM1-promoter luciferase reporter, 24 h
Assay: TRPM1 promoter luciferase signal decrease, dose response, MITF inhibitor project, cell-based, SK-MEL-5, cherry-picked, set 4 (AID 493102);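 note: actives lower the luciferase signal so the potency reflects inhibition of reporter expression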

SMILES | AC50
O=C(N/N=C/c1ccc([N+](=O)[O-])o1)c1ccc(O)cc1 | 5.2 µM
Cc1cc(C)cc(NC(=O)c2ccc([N+](=O)[O-])o2)c1 | 16.6 µM
CCOC(=O)c1ccc(NC(=O)c2nc(S(=O)(=O)Cc3ccccc3)ncc2Cl)cc1 | 9.92 µM
Cc1cccc(NC(=O)c2ccc([N+](=O)[O-])o2)c1C | 14.8 µM
O=C(N/N=C/c1ccc([N+](=O)[O-])o1)c1cc2ccccc2o1 | 5.99 µM
C=CCOc1ccc(/C=C2\SC(=S)N(CCC(=O)O)C2=O)cc1 | 0.337 µM
Cc1cc(N2CCOCC2)ccc1/C=C\[N+](=O)[O-] | 22.5 µM
CC(=O)N(C)C1=C(N2CCOCC2)C(=O)c2ccccc2C1=O | 3.5 µM
CN1CCC(N(C)C(=O)/C=C/c2cn(-c3ccccc3)nc2-c2cccs2)CC1 | 9.82 µM
Cc1c(C#N)c(NC(=O)CCl)n(Cc2ccccc2)c1C | 11.2 µM
CN(C)S(=O)(=O)c1cccc(NC(=O)CSc2nc3c(cc2C#N)C(=O)CC(C)(C)C3)c1 | 9.02 µM
COc1ccc(N(Cc2cc(=O)[nH]c3ccccc23)C(=O)CCl)cc1 | 10.9 µM
CC[n+]1c(/C=C/N(C)c2ccccc2)sc2ccc(Cl)cc21 | 9.07 µM
Cc1ccc(C(=O)c2no[n+]([O-])c2C(=O)c2ccc(C)cc2)cc1 | 16.7 µM
CC(Oc1ccc(F)cc1)C(=O)Nc1nc(-c2ccccn2)cs1 (stereo not drawn) | 9.42 µM
COc1cccc2c1C(=O)C=C(C)C2=O | 7.83 µM
CCOC(=O)CCc1ccc(NC(=O)/C=C/c2ccc([N+](=O)[O-])o2)cc1 | 6.83 µM
CCOc1ccc(-n2c(O)c(/C=N/Nc3nc(C)cc(C)n3)c3ccccc3c2=O)cc1 | 3.48 µM
CCCCN(CC)CCCNC(=O)c1cc2c(=O)n(CC)c3ccccc3c2s1 | 21.6 µM
O=C(O)c1cc2ccccc2c(N=Nc2cccnc2)c1O | 11.4 µM
N=c1n(CC(=O)c2ccc([N+](=O)[O-])cc2)c2ccccc2n1Cc1ccccc1 | 4.83 µM
C/C(=N\NC(=O)C(c1ccccc1)c1ccccc1)c1ccccn1 | 5.96 µM
N#C/C(=C\c1ccc(OCc2ccc(C(=O)O)cc2)cc1)C(=O)N1CCOCC1 | 1.19 µM

SMILES | AC50
Cc1cc(C)c2nc3nc(C)cc(C)c3c(N)c2c1 | 5.72 µM
Cn1nnnc1Sc1ncnc2scc(-c3ccc(C#N)cc3)c12 | 4.98 µM
N=c1n(Cc2ccc(Cl)cc2)c2ccccc2n1CC(O)COc1ccccc1 (stereo not drawn) | 9.25 µM
CCN1CCN(/C=N/c2nc3c(s2)CCCC3)CC1 | 6.42 µM
CC(C)c1ccc(/C=C2\SC(=S)N(CCC(=O)N3CCCCC3CCO)C2=O)cc1 (stereo not drawn) | 7.43 µM
CCC(=O)N1CCN(c2ccc(Cl)cc2NC(=O)c2ccc([N+](=O)[O-])o2)CC1 | 12.4 µM
O=C(c1ccc([N+](=O)[O-])s1)N1CCCc2ccccc21 | 11.2 µM
COc1cc2c(cc1OC)C(SC)=NC1(CCCC1)C2 | 9.44 µM
C=CC[n+]1c(-c2ccc(C)cc2)csc1Nc1ccc(NC(C)=O)cc1 | 1.57 µM
CC(C)(C)c1ccc(/C=N/Nc2ccc(C(=O)O)cc2)cc1 | 6.03 µM
CC(=O)Nc1ccc(S(=O)(=O)N2CCn3cccc3C2C)cc1 (stereo not drawn) | 28.7 µM
Cc1cc(C)c[n+](C2=C([O-])c3ccccc3C(=O)/C2=N\S(=O)(=O)c2cccs2)c1 | 2.95 µM
COC1=C(Nc2ccccc2)C(=O)c2ccccc2C1=O | 4.53 µM
Cc1ccc(C(C)C)c(OCc2nn(CC(=O)c3ccc(OC(F)F)cc3)c3[n+]2CCCCC3)c1 | 9.17 µM
CC(C)(C)C(=O)Nc1cc2nn(-c3ccccc3)nc2cc1Cl | 0.495 µM
CCN(CC)CCn1nc2c3c(cccc3c1=O)-c1ccccc1-2 | 5.92 µM
CN(C)CCCN(C(=O)c1ccc(Cl)s1)c1nc2cc3c(cc2s1)OCO3 | 22.9 µM
COc1cc2c(cc1/C=C/[N+](=O)[O-])OCO2 | 8.98 µM
COc1ccc(Br)cc1C(C[N+](=O)[O-])c1c(N)n(C)c(=O)n(C)c1=O (stereo not drawn) | 8.73 µM
O=C(N/N=C/c1ccc(O)c2ncccc12)c1cccc(Br)c1 | 7.28 µM
Cc1ccc(C2CC(C(F)(F)F)n3nc(C(=O)NCc4c(C)nn(C)c4C)c(Cl)c3N2)cc1 (stereo not drawn) | 8.89 µM
CCc1ccc(N2C(=O)NC(=O)/C(=C\C=C\c3ccco3)C2=O)cc1 | 7.53 µM
CCOC(=O)COc1ccc2ccccc2c1/C=C/[N+](=O)[O-] | 8.17 µM

SMILES | AC50
CC1CCC(C(C)C)C(OC(=O)Cn2c(-c3ccc(Cl)cc3)[n+](C)c3ccccc32)C1 (stereo not drawn) | 6.29 µM
Oc1ccc(CNc2ccccc2F)c2cccnc12 | 15.1 µM
COc1ccc(-n2ncc3c(N4CCCCC4)ncnc32)cc1 | 1.48 µM
CS(=O)(=O)c1ncc(Cl)c(C(=O)Nc2ccc(N3CCOCC3)cc2)n1 | 22.8 µM
CCN(Cc1ccccc1)c1ccc(/C=N/N=C(N)N)cc1 | 6.37 µM
Cc1ccc(C(=O)N/N=C\c2ccc([N+](=O)[O-])s2)cn1 | 2.95 µM
CCOc1ccc(/C=C2\SC(=S)N(CCC(=O)O)C2=O)cc1 | 0.577 µM
O=C(Nc1ccc(Cl)c(S(=O)(=O)N2CCOCC2)c1)c1ccc(OCC2CCCO2)cc1 (stereo not drawn) | 3.26 µM
Cc1ccc(C)c(C(=O)Cn2ncc(Cl)c(Cl)c2=O)c1 | 14.5 µM
COc1ccc(-c2cc3c(nn2)-c2ccccc2C3=O)cc1 | 4.22 µM
CCCCN1C=CC(=C2C(=O)c3ccccc3C2=O)C=C1 | 0.921 µM
O=C(/C=C\c1ccccc1)NCC(=O)N/N=C/c1ccc(O)cc1O | 7.99 µM
COc1cc2nc(SCC(=O)NCc3ccco3)n(Cc3ccc(Cl)cc3)c(=O)c2cc1OC | 13.2 µM
COc1ccccc1NC(=O)c1cnc(SCC(=O)NCC2CCCO2)n(C)c1=O (stereo not drawn) | 8.88 µM
CCOc1ccc(-c2cc(C)[n+](CCO)c(-c3ccc(OCC)cc3)c2)cc1 | 11.1 µM
Cc1ccc(NC(=O)/C=C/c2ccc([N+](=O)[O-])s2)c(C)c1 | 4.64 µM
CC(=O)SC(C[N+](=O)[O-])c1cn(C(C)=O)c2ccccc12 (stereo not drawn) | 3.54 µM
Cc1ccc(S(=O)(=O)CC(CN2CCCCC2)N2CCCCC2)cc1 (stereo not drawn) | 8.1 µM
O=C(/C=C/Nc1ccccc1Br)c1ccccn1 | 0.899 µM
CCC(=O)OCCNc1cc(Sc2nccn2C)c2nonc2c1[N+](=O)[O-] | 7.16 µM
CCNC1=C(Cl)C(=O)c2ccccc2C1=O | 3.84 µM
O=C(COC(=O)c1ccccc1C(=O)c1ccc(Cl)c([N+](=O)[O-])c1)NC1CC1 | 8.92 µM
C=CCn1c(C)cc(C2=NNC(=NC(C)(C)C)SC2)c1C | 4.09 µM

SMILES | AC50
O=C(c1ccccc1)c1cc(Cl)ccc1N1C(=O)C=CC1=O | 11.9 µM
Cc1cccc(NC2=C(NC(=O)c3ccccc3)C(=O)c3ccccc3C2=O)c1 | 9.99 µM
COc1cccc(CNCCc2c[nH]c3ccccc23)c1OCc1ccccc1 | 14.4 µM
Cc1nc(NC(=O)/C=C/c2ccccc2)n[nH]1 | 17.8 µM
Cc1ccccc1NC(=O)Cc1nc(COC(=O)c2ccc(S(C)(=O)=O)c([N+](=O)[O-])c2)cs1 | 12.8 µM
CC(=O)OCCNc1cc(Sc2nc3ccccc3[nH]2)c2nonc2c1[N+](=O)[O-] | 11.5 µM
Cc1ccc(-c2cc(-c3ccc(C)cc3)[n+](C)o2)cc1 | 8.24 µM
O=C(Nc1nc(-c2ccccn2)cs1)c1ccccc1-n1cnnn1 | 6.96 µM
CC(C)Oc1ccc(C(CCN)C2CCCCC2)cc1 (stereo not drawn) | 9.99 µM
O=C(O)CSCC(=O)Nc1ccc(C2CCCCC2)cc1 | 2.12 µM
COc1ccccc1-c1cc(C(F)(F)F)nc(S(C)(=O)=O)n1 | 6.81 µM
CC(C)C(=O)N1CCN(c2ccc(NC(=O)c3ccc([N+](=O)[O-])o3)cc2Cl)CC1 | 7.05 µM
CCc1ccccc1NC(=O)CN(C)C(=O)Cn1ncc(Cl)c(Cl)c1=O | 11 µM
COc1ccc(S(=O)(=O)Nc2ccc(O)c3ccccc23)cc1 | 9.07 µM
O=C(CCCc1ccccc1)Nc1cccc(C(=O)O)c1 | 4.42 µM
Cc1[nH]n(-c2ccccc2)c(=O)c1N=Nc1cccc(C(=O)O)c1 | 8.07 µM
O=C(/C=C/c1ccc(Cl)c([N+](=O)[O-])c1)c1ccc(O)cc1 | 17.4 µM
CC(C)(C)c1ccc(-c2noc(CCC(=O)NCc3ccco3)n2)cc1 | 0.122 µM
CCCC(=O)N1CCN(c2ccc(NC(=O)c3ccc([N+](=O)[O-])o3)cc2Cl)CC1 | 7.65 µM
O=C(CNC(=O)c1ccccc1)N/N=C/c1ccc([N+](=O)[O-])s1 | 5.34 µM
N#C/C(=C\C=C\c1ccccc1[N+](=O)[O-])C(=O)NCc1ccccc1 | 14.7 µM
Cc1ccc2sc(N(CCCN(C)C)C(=O)c3ccc(S(=O)(=O)N(C)C4CCCCC4)cc3)nc2c1C | 18 µM
CN(Cc1ccccc1)C1=CC(=[N+]2CCCC2)CC(C)(C)C1 | 1.55 µM

SMILES | AC50
COc1ccc(C)cc1Nc1nc(N)c2cc(OC)c(OC)cc2n1 | 14.2 µM
Cn1cc([N+](=O)[O-])c(C(=O)Nc2cc(Oc3ccccc3)cc([N+](=O)[O-])c2)n1 | 12.4 µM
C=CCn1c(C)cc(C2=NNC(=NCC)SC2)c1C | 0.056 µM
CCOC(=O)N1C(=O)[C@@](CC)(c2ccccc2)N1C(=O)OCC | 12.5 µM
CC(C)=CCc1c(O)ccc2c1OC(c1ccc(O)c(O)c1)CC2=O (stereo not drawn) | 11.7 µM
CCOc1ccc(OCc2ccc(C(=O)N/N=C(\C)c3ccccn3)cc2)cc1 | 3.64 µM
Cc1cc(C(C)(C)C)cc(C)c1Cn1c2[n+](c3ccc(C(F)(F)F)cc31)CCCCC2 | 7.55 µM
CC(OC(=O)c1ccc([N+](=O)[O-])s1)C(=O)NC1CCCCC1C (stereo not drawn) | 12 µM
Cc1cc(-n2c(SCC(=O)NCCC3=CCCCC3)nc3n[nH]c(C)c3c2=N)ccc1Cl | 17.1 µM
COc1ccc(C(C(=O)NC2CCCCC2)N(C(=O)CCl)c2ccc(OC)cc2)cc1 (stereo not drawn) | 9.27 µM
Cc1cc(NC(=O)c2ccc([N+](=O)[O-])o2)ccc1NC(=O)c1ccco1 | 7.8 µM
Nc1nc2ccccc2n1/N=C/c1ccc([N+](=O)[O-])s1 | 2.81 µM
Cc1nc2ccccn2c1C(=O)/C=C/c1cccc([N+](=O)[O-])c1 | 6.9 µM
COc1ccc(NC(=O)CCC(=O)N/N=C/c2ccc([N+](=O)[O-])s2)cc1 | 7.62 µM
CC1C/C(=C\c2cccnc2)C(=O)/C(=C/c2cccnc2)C1 (stereo not drawn) | 2.66 µM
O=C(c1ccc(F)cc1)C(CN1CCOCC1)c1ccccc1 (stereo not drawn) | 5.96 µM
O=C1Nc2ccc(Br)cc2/C1=C/C(=O)c1ccc2c(c1)OCO2 | 25.5 µM
O=C(Cn1ncc(Cl)c(Cl)c1=O)NC1CCCCC1 | 6.82 µM
O=C(CCl)N1CCN(S(=O)(=O)c2ccc3c(c2)CCC3)CC1 | 20.8 µM
CCOC(=O)/C=c1\s/c(=C\c2ccc3cc(OC)ccc3c2)c(=O)n1CC(=O)NCC1CCCO1 (stereo not drawn) | 5.73 µM
CC1CC(C)CN(C(=O)/C=C/c2ccc([N+](=O)[O-])s2)C1 (stereo not drawn) | 11.9 µM
